System: HCT116
Assay: In Vitro cytotoxicity measured by the cell colony formation assay
Assay type: cell-based
Conditions: Homo sapiens, HCT-116; 72 h drug incubation, colonies counted after 7 days; concentration producing 50% inhibition of colony formation; read-out: IN VITRO ID 50 (nm) HCT116
Protocol: In Vitro cytotoxicity measured by the cell colony formation assay
Four hundred cells (HCT116) were plated in 60 mm Petri dishes containing 2.7 mL of medium (modified McCoy's 5a medium containing 10% fetal bovine serum and 100 units/mL penicillin and […] streptomycin). The cells were incubated in a CO2 incubator at 37 °C for 5 h for attachment to the bottom of Petri dishes. The compounds identified in Example 2 were made up fresh in medium at ten times the final concentration, and then 0.3 mL of this stock solution was added to the 2.7 mL of medium in the dish. The cells were then incubated with drugs for 72 h at 37 ° C. At the end of incubation the drug-containing media were decanted, the dishes were rinsed with 4 mL of Hank's Balance Salt Solution (HBSS), 5 mL of fresh medium was added, and the dishes were returned to the incubator for colony formation. The cell colonies were counted using a colony counter after incubation for 7 days. Cell survival was calculated and the values of ID50 (the drug concentration producing 50% inhibition of colony formation) were determined for each tested compound.

Structure (SMILES): CCC(=O)O[C@H]1C[C@H]2OC[C@@]2(OC(C)=O)[C@H]2[C@H](OC(=O)c3ccccc3)[C@]3(O)C[C@H](OC(=O)[C@H](O)[C@@H](NC(=O)OC(C)(C)C)c4ccccn4)C(C)=C([C@@H](O)C(=O)[C@]12C)C3(C)C [Compound 1364]
- IC50: < 10 nM

Structure (SMILES): CCC(=O)O[C@H]1C[C@H]2OC[C@@]2(OC(C)=O)[C@H]2[C@H](OC(=O)c3ccccc3)[C@]3(O)C[C@H](OC(=O)[C@H](O)[C@@H](NC(=O)OC(C)(C)C)c4cccnc4)C(C)=C([C@@H](O)C(=O)[C@]12C)C3(C)C [Compound 1372]
- IC50: 26.1 nM

Structure (SMILES): CCC(=O)O[C@H]1C[C@H]2OC[C@@]2(OC(C)=O)[C@H]2[C@H](OC(=O)c3ccccc3)[C@]3(O)C[C@H](OC(=O)[C@H](O)[C@@H](NC(=O)OC(C)(C)C)c4ccncc4)C(C)=C([C@@H](O)C(=O)[C@]12C)C3(C)C [Compound 1386]
- IC50: < 1 nM

Structure (SMILES): CCC(=O)O[C@H]1C[C@H]2OC[C@@]2(OC(C)=O)[C@H]2[C@H](OC(=O)c3ccccc3)[C@]3(O)C[C@H](OC(=O)[C@H](O)[C@@H](NC(=O)OC(C)(C)C)C(C)C)C(C)=C([C@@H](O)C(=O)[C@]12C)C3(C)C [Compound 1434]
- IC50: < 10 nM

Structure (SMILES): CCC(=O)O[C@H]1C[C@H]2OC[C@@]2(OC(C)=O)[C@H]2[C@H](OC(=O)c3ccccc3)[C@]3(O)C[C@H](OC(=O)[C@H](O)[C@@H](NC(=O)OC(C)(C)C)C4CCC4)C(C)=C([C@@H](O)C(=O)[C@]12C)C3(C)C [Compound 1447]
- IC50: < 10 nM

Structure (SMILES): CCC(=O)O[C@H]1C[C@H]2OC[C@@]2(OC(C)=O)[C@H]2[C@H](OC(=O)c3ccccc3)[C@]3(O)C[C@H](OC(=O)[C@H](O)[C@@H](NC(=O)c4ccco4)c4cccs4)C(C)=C([C@@H](O)C(=O)[C@]12C)C3(C)C [Compound 3069]
- IC50: < 1 nM

Structure (SMILES): CCC(=O)O[C@H]1C[C@H]2OC[C@@]2(OC(C)=O)[C@H]2[C@H](OC(=O)c3ccccc3)[C@]3(O)C[C@H](OC(=O)[C@H](O)[C@@H](NC(=O)OC(C)C)c4cccs4)C(C)=C([C@@H](O)C(=O)[C@]12C)C3(C)C [Compound 3082]
- IC50: < 1 nM

Structure (SMILES): CCCC(=O)N[C@@H](c1ccco1)[C@@H](O)C(=O)O[C@H]1C[C@@]2(O)[C@@H](OC(=O)c3ccccc3)[C@@H]3[C@]4(OC(C)=O)CO[C@@H]4C[C@H](OC(=O)CC)[C@@]3(C)C(=O)[C@H](O)C(=C1C)C2(C)C [Compound 3171]
- IC50: < 1 nM

Structure (SMILES): CCC(=O)O[C@H]1C[C@H]2OC[C@@]2(OC(C)=O)[C@H]2[C@H](OC(=O)c3ccccc3)[C@]3(O)C[C@H](OC(=O)[C@H](O)[C@@H](NC(=O)OCC(C)C)c4ccco4)C(C)=C([C@@H](O)C(=O)[C@]12C)C3(C)C [Compound 3196]
- IC50: < 10 nM

Structure (SMILES): CCC(=O)O[C@H]1C[C@H]2OC[C@@]2(OC(C)=O)[C@H]2[C@H](OC(=O)c3ccccc3)[C@]3(O)C[C@H](OC(=O)[C@H](O)[C@@H](NC(=O)OCC(C)C)c4cccs4)C(C)=C([C@@H](O)C(=O)[C@]12C)C3(C)C [Compound 3232]
- IC50: < 1 nM

Structure (SMILES): CCCC(=O)N[C@@H](c1cccs1)[C@@H](O)C(=O)O[C@H]1C[C@@]2(O)[C@@H](OC(=O)c3ccccc3)[C@@H]3[C@]4(OC(C)=O)CO[C@@H]4C[C@H](OC(=O)CC)[C@@]3(C)C(=O)[C@H](O)C(=C1C)C2(C)C [Compound 3327]
- IC50: < 10 nM

Structure (SMILES): CCC(=O)O[C@H]1C[C@H]2OC[C@@]2(OC(C)=O)[C@H]2[C@H](OC(=O)c3ccccc3)[C@]3(O)C[C@H](OC(=O)[C@H](O)[C@@H](NC(=O)c4ccccc4)c4ccsc4)C(C)=C([C@@H](O)C(=O)[C@]12C)C3(C)C [Compound 3388]
- IC50: < 10 nM

Structure (SMILES): CCC(=O)O[C@H]1C[C@H]2OC[C@@]2(OC(C)=O)[C@H]2[C@H](OC(=O)c3ccccc3)[C@]3(O)C[C@H](OC(=O)[C@H](O)[C@@H](NC(=O)OC(C)C)c4ccco4)C(C)=C([C@@H](O)C(=O)[C@]12C)C3(C)C [Compound 3444]
- IC50: < 1 nM

Structure (SMILES): CCC(=O)O[C@H]1C[C@H]2OC[C@@]2(OC(C)=O)[C@H]2[C@H](OC(=O)c3ccccc3)[C@]3(O)C[C@H](OC(=O)[C@H](O)[C@@H](NC(=O)c4cccs4)c4cccs4)C(C)=C([C@@H](O)C(=O)[C@]12C)C3(C)C [Compound 3479]
- IC50: < 1 nM

Structure (SMILES): C/C=C/C(=O)N[C@@H](c1cccs1)[C@@H](O)C(=O)O[C@H]1C[C@@]2(O)[C@@H](OC(=O)c3ccccc3)[C@@H]3[C@]4(OC(C)=O)CO[C@@H]4C[C@H](OC(=O)CC)[C@@]3(C)C(=O)[C@H](O)C(=C1C)C2(C)C [Compound 3560]
- IC50: < 1 nM

Structure (SMILES): CCOC(=O)N[C@@H](c1ccco1)[C@@H](O)C(=O)O[C@H]1C[C@@]2(O)[C@@H](OC(=O)c3ccccc3)[C@@H]3[C@]4(OC(C)=O)CO[C@@H]4C[C@H](OC(=O)CC)[C@@]3(C)C(=O)[C@H](O)C(=C1C)C2(C)C [Compound 3611]
- IC50: < 1 nM

Structure (SMILES): CCC(=O)O[C@H]1C[C@H]2OC[C@@]2(OC(C)=O)[C@H]2[C@H](OC(=O)c3ccccc3)[C@]3(O)C[C@H](OC(=O)[C@H](O)[C@@H](NC(=O)c4ccco4)c4ccco4)C(C)=C([C@@H](O)C(=O)[C@]12C)C3(C)C [Compound 3629]
- IC50: < 1 nM

Structure (SMILES): CCC(=O)OC1CC2OCC2(OC(C)=O)C2C(OC(=O)c3ccccc3)C3(O)CC(OC(=O)C(O)C(NC(=O)c4cccs4)c4ccco4)C(C)=C(C(O)C(=O)C12C)C3(C)C (stereo not shown) [Compound 3632]
- IC50: < 1 nM

Structure (SMILES): CCOC(=O)NC(c1cccs1)C(O)C(=O)OC1CC2(O)C(OC(=O)c3ccccc3)C3C4(OC(C)=O)COC4CC(OC(=O)CC)C3(C)C(=O)C(O)C(=C1C)C2(C)C (stereo not shown) [Compound 4044]
- IC50: < 1 nM

Structure (SMILES): CCC(=O)OC1CC2OCC2(OC(C)=O)C2C(OC(=O)c3ccccc3)C3(O)CC(OC(=O)C(O)C(NC(=O)c4cccnc4)c4cccs4)C(C)=C(C(O)C(=O)C12C)C3(C)C (stereo not shown) [Compound 4106]
- IC50: < 10 nM

Structure (SMILES): CCCC(=O)OC1CC2OCC2(OC(C)=O)C2C(OC(=O)c3ccccc3)C3(O)CC(OC(=O)C(O)C(NC(=O)OC(C)C)c4cccs4)C(C)=C(C(O)C(=O)C12C)C3(C)C (stereo not shown) [Compound 4135]
- IC50: < 1 nM

Structure (SMILES): CCCC(=O)OC1CC2OCC2(OC(C)=O)C2C(OC(=O)c3ccccc3)C3(O)CC(OC(=O)C(O)C(NC(=O)c4ccccc4)c4cccs4)C(C)=C(C(O)C(=O)C12C)C3(C)C (stereo not shown) [Compound 4175]
- IC50: < 10 nM

Structure (SMILES): CCCC(=O)OC1CC2OCC2(OC(C)=O)C2C(OC(=O)c3ccccc3)C3(O)CC(OC(=O)C(O)C(NC(=O)c4ccco4)c4cccs4)C(C)=C(C(O)C(=O)C12C)C3(C)C (stereo not shown) [Compound 4219]
- IC50: 29 nM

Structure (SMILES): CCCC(=O)OC1CC2OCC2(OC(C)=O)C2C(OC(=O)c3ccccc3)C3(O)CC(OC(=O)C(O)C(NC(=O)OC(C)(C)C)c4cccs4)C(C)=C(C(O)C(=O)C12C)C3(C)C (stereo not shown) [Compound 4256]
- IC50: < 1 nM

Structure (SMILES): CCCC(=O)OC1CC2OCC2(OC(C)=O)C2C(OC(=O)c3ccccc3)C3(O)CC(OC(=O)C(O)C(NC(=O)C=C(C)C)c4cccs4)C(C)=C(C(O)C(=O)C12C)C3(C)C (stereo not shown) [Compound 4283]
- IC50: < 1 nM

Structure (SMILES): CCCC(=O)OC1CC2OCC2(OC(C)=O)C2C(OC(=O)c3ccccc3)C3(O)CC(OC(=O)C(O)C(NC(=O)OCC(C)C)c4cccs4)C(C)=C(C(O)C(=O)C12C)C3(C)C (stereo not shown) [Compound 4290]
- IC50: < 10 nM

Structure (SMILES): CCC(=O)OC1CC2OCC2(OC(C)=O)C2C(OC(=O)c3ccccc3)C3(O)CC(OC(=O)C(O)C(NC(=O)C=C(C)C)c4cccs4)C(C)=C(C(O)C(=O)C12C)C3(C)C (stereo not shown) [Compound 4312]
- IC50: < 1 nM

Structure (SMILES): CCCC(=O)OC1CC2OCC2(OC(C)=O)C2C(OC(=O)c3ccccc3)C3(O)CC(OC(=O)C(O)C(NC(=O)c4cccs4)c4cccs4)C(C)=C(C(O)C(=O)C12C)C3(C)C (stereo not shown) [Compound 4388]
- IC50: < 1 nM
